“And” between values parts separate entries of the source, which are not always exact repeats. Equal entries are not always repeated.
Assays:
[1] = test system: TS-induced growth of LNCaP (AR+) PCa cells; test: Inhibition of testosterone-induced cell proliferation of LNCaP PCa cells; format: cell-based, human; conditions: 48 h; for reduction relative to the proliferative response induced by 0.1 nM TS: 1 μM dimer
[2] = biological target: isolated recombinant CYP3A4 (Homo sapiens, UniProt P08684); test: Equilibrium ligand binding to CYP3A4; conditions: for high spin: high spin content of ligand-bound CYP3A4, mean of three ± SD; for Kd, fold lower than for 14β: relative to 14β
[3] = test system: DHT-induced growth of LNCaP (AR+) PCa cells; test: Inhibition of dihydrotestosterone-induced cell proliferation of LNCaP PCa cells; conditions: 0.1 nM DHT, 48 h; for inhibition of growth induced by DHT: 0.125 μM dimer
[4] = test system: LNCaP (AR+) androgen-sensitive human prostate adenocarcinoma cells; test: MTT antiproliferative activity assay on LNCaP cells; format: cell-based; conditions: relative to cyproterone acetate
[5] = test system: PC3 (AR−) androgen-insensitive human prostate adenocarcinoma cells; test: MTT antiproliferative activity assay on PC3 cells; format: cell-based; conditions: read-out: IC50 PC3 (AR−), 48 h, concentration inhibiting cell growth by 50%
[6] = test system: LNCaP, PC3 and DU145 prostate cancer cells; test: MTT antiproliferative activity, summarised over the three PCa cell lines; format: cell-based; conditions: Homo sapiens, read-out: IC50 range on different cell lines
LNCaP (AR+) PCa cells = conditions: read-out: IC50 LNCaP (AR+); MTT antiproliferative assay; cited from earlier work
PC3 (AR−) PCa cells = conditions: read-out: IC50 PC3 (AR−); MTT antiproliferative assay; cited from earlier work

isolated recombinant CYP3A4, sequence (P08684 whole entry): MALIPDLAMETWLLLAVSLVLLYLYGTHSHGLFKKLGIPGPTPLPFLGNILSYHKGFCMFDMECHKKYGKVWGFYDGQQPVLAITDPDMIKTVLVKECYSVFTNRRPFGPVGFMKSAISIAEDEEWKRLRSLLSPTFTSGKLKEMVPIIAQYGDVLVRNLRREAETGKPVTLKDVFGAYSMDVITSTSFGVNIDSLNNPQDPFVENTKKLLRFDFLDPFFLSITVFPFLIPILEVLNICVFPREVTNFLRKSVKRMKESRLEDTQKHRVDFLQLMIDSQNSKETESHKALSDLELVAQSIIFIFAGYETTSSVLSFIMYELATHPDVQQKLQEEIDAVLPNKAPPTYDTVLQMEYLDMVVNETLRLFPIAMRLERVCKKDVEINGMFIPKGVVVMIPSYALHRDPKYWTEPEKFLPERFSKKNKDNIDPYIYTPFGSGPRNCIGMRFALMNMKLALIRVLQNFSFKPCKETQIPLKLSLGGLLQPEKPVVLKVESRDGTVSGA

C[C@]12CC[C@H]3[C@@H]([C@H](/C=C/C=C/C=C/[C@@H]4CC5=CC(=O)CC[C@]5(C)[C@H]5CC[C@]6(C)[C@H](O)CC[C@H]6[C@H]45)CC4=CC(=O)CC[C@@]43C)[C@@H]1CC[C@H]2O (relative stereo) [Compound 14α, trans, trans,trans-1,6-bis-(17α-hydroxy-4-androsten-3-one-7α-yl)hexatriene]
concentration at which 100% effective against TS-induced cell proliferation ([1]; 0.1 nM TS): 0.25 µM | reduction relative to the proliferative response induced by 0.1 nM TS [1]: ~ 141% | high spin [2]: 46 ± 3% | Kd, fold lower than for 14β [2]: ~ 4 fold | concentration at which 100% effective against DHT-induced cell proliferation [3]: 1 µM | inhibition of growth induced by DHT [3]: at least 45%

C[C@]12CC[C@H]3[C@@H]([C@H](/C=C/C=C/C=C/[C@@H]4CC5=CC(=O)CC[C@]5(C)[C@H]5CC[C@]6(C)[C@@H](O)CC[C@H]6[C@H]45)CC4=CC(=O)CC[C@@]43C)[C@@H]1CC[C@@H]2O (relative stereo) [Compound 14β, trans, trans,trans-1,6-bis-(17β-hydroxy-4-androsten-3-one-7α-yl)hexatriene]
times more active than CPA (IC50 ratio) [4]: ~ 5 times | concentration at which 100% effective against TS-induced cell proliferation ([1]; 0.1 nM TS): 0.5 µM | inhibition of growth induced by TS ([1]; 0.125 μM dimer, 0.1 nM TS): at least 45% | reduction relative to the proliferative response induced by 0.1 nM TS [1]: 104% | high spin [2]: 49 ± 3% | concentration at which 100% effective against DHT-induced cell proliferation [3]: 1 µM | inhibition of growth induced by DHT [3]: at least 45%

C=CC=C[C@@H]1CC2=CC(=O)CC[C@]2(C)[C@H]2CC[C@]3(C)[C@H](O)CC[C@H]3[C@H]12 [Compound 13α, 7α-(buta-1,3-dienyl)-4-androsten-17α-ol-3-one]
times more active than CPA (IC50 ratio) [4]: about 4 times | IC50 [5]: 31.5 µM

C=CC=C[C@@H]1CC2=CC(=O)CC[C@]2(C)[C@H]2CC[C@]3(C)[C@@H](O)CC[C@H]3[C@H]12 [Compound 13β, 7α-(buta-1,3-dienyl)-4-androsten-17β-ol-3-one]
IC50 [5]: 34.1 µM

C[C@]12CCC(=O)C=C1C[C@@H](/C=C/C=C/C=C/[C@@H]1CC3=CC(=O)CC[C@]3(C)[C@H]3CC[C@]4(C)C(=O)CC[C@H]4[C@H]13)[C@@H]1[C@@H]2CC[C@]2(C)C(=O)CC[C@@H]12 [Compound 14, trans, trans,trans-1,6-bis-(4-androsten-3,17-dione-7α-yl)hexatriene]
IC50 [6]: 29 to 72.7 µM | high spin [2]: 36 ± 2% | Kd, fold lower than for 14β [2]: ~ 4 fold

C[C@]12CC[C@H]3[C@@H]([C@H]([C@H]4C=CC[C@H]5C(=O)OC(=O)[C@@H]45)CC4=CC(=O)CC[C@@]43C)[C@@H]1CC[C@@H]2O [Compound 15, 4-(17β-hydroxy-4-androsten-3-one-7α-yl)-3a,4,7,7a-tetrahydro-isobenzofuran-1,3-dione]
IC50 [6]: 62.5 to 131 µM

C[C@]12CC[C@H]3[C@@H]([C@H](C/C=C\C[C@@H]4CC5=CC(=O)CC[C@]5(C)[C@H]5CC[C@]6(C)[C@@H](O)CC[C@H]6[C@H]45)CC4=CC(=O)CC[C@@]43C)[C@@H]1CC[C@@H]2O [cis-10]
high spin [2]: 99 ± 1% | IC50 (LNCaP (AR+) PCa cells): 30.3 µM | IC50 (PC3 (AR−) PCa cells): 24.7 µM

C[C@]12CC[C@H]3[C@@H]([C@H](C/C=C/C[C@@H]4CC5=CC(=O)CC[C@]5(C)[C@H]5CC[C@]6(C)[C@@H](O)CC[C@H]6[C@H]45)CC4=CC(=O)CC[C@@]43C)[C@@H]1CC[C@@H]2O [trans-10, reference compound]
high spin [2]: 65% and 65 ± 4%

— publication PMC8192494 (European journal of medicinal chemistry, 2021)
